Data taken from patent publication US20220151989A1, “LIPOIC ACID PRODRUG” (SANTEN PHARMACEUTICAL CO., LTD., priority 2019, published 2022).

Legend:
lens elasticity [1] = assay: Pharmacological Test-1: lens elasticity after instillation 3 times per day for 12 to 15 days; format: in vivo, C57BL/6J mice; settings: for Lens elasticity improvement: 0.03% (w/v) solution, 2.5 μL/eye, right eye, 3 times per day for 12 to 15 days, 8-month-old mice, vs vehicle control; for lens elasticity improving effect: at a concentration of 0.03%
Description: The effects of compounds 1 to 4 on the lens elasticity were examined. The tests were conducted with reference to the methods described in Invest Ophthalmol Vis Sci, 57, 2851-2863, 2016.
A vehicle (aqueous solution) comprising 0.1% (w/v) of ethyl pyruvate, 0.269% (w/v) of sodium dihydrogenphosphate monohydrate (NaH2PO4.H2O), 0.433% (w/v) of di sodium hydrogenphosphate (Na2HPO4), 0.2% (w/v) of hydroxypropyl methylcellulose, 0.5% (w/v) of NaCl, 1.0% (w/v) of polyoxyl 35 castor oil (hereinafter also referred to as “CO35”), and purified water (appropriate amount) was prepared.
Each of compounds 1 to 4 was stirred with the addition of the vehicle to give a 0.03% (w/v) solution.
EV06 was stirred with the addition of the vehicle to give a 0.03% (w/v) solution. (Test method) 1) Each test sample (2.5 μL/eye) was instilled into the right eye of 8-month-old C57BL/6J mice with a Pipetman 3 times per day (around 9:00, 13:00, 17:00) for 12 to 15 days. 2) After the final instillation, the mice were euthanized by carbon dioxide inhalation, and then the eyeballs were extracted and rinsed with Hank's balanced salt solution (HESS). 3) The sclera near the optic nerve was cut with a razor, the lens was removed through the incision, and the removed lens was immersed in HESS. 4) The lens was placed on a glass slide, and an all-in-one fluorescence microscope BZ-9000 (Keyence) was used to capture an image of the lens (Image a). 5) Next, one cover glass (Corning^registered trade mark) 22×22 mm Square) was placed on the lens, and an image in which the thickness of the lens changed due to the weight was similarly captured (Image b). 6) A change in the lens diameter was calculated from the following Equation 1 wherein the lens diameter of Image a is subtracted from the lens diameter of Image b. Then, the lens elasticity improvement of each sample group compared with the vehicle control group was calculated from Equation 2 described below. The mean value of the vehicle control group was based on 5 eyes, the mean value of each of the sample groups of compounds 1 to 4 was based on 10 eyes, and the mean value of EV06 sample group was based on 9 eyes.
Change in lens diameter=Lens diameter in Image b of each test sample−Lens diameter in Image a of each test sample (Equation 1)
Lens elasticity improvement of each sample group=Mean change in lens diameter of each Test sample group−Mean change in lens diameter of Vehicle control group (Equation 2)

lens elasticity [2] = assay: Pharmacological Test-2: lens elasticity at different concentrations, instillation 3 times per day for 12 to 15 days; format: in vivo, C57BL/6J mice; settings: for Lens elasticity improvement: 3 times per day for 12 to 15 days; for lens elasticity improvement compared with 1.5% EV06 group: 0.03% and 0.3% sample groups
Description: The effects of Compounds 1, 3, and 4 on the lens elasticity were investigated at different concentrations.
(§1) Vehicle A (aqueous solution) comprising 0.1% (w/v) of ethyl pyruvate, 0.269% (w/v) of sodium dihydrogenphosphate monohydrate (NaH2PO4.H2O), 0.433% (w/v) of disodium hydrogenphosphate (Na2HPO4), 0.2% (w/v) of hydroxypropyl methylcellulose, 0.5% (w/v) of NaCl, 0.2% (w/v) of 0035, and purified water (appropriate amount) was prepared.
as §1, with “B (emulsion)” for “A (aqueous solution)”, “CO35, 0.6% benzyl benzoate,” for “0035,”
as §1, with “Vehicle C” for “Vehicle A”, “NaCl, 1.0%” for “NaCl, 0.2%”
as §1, with “Vehicle D (emulsion)” for “Vehicle A (aqueous solution)”, “NaCl, 1.0%” for “NaCl, 0.2%”, “of CO35, 3.0% benzyl benzoate,” for “of 0035,”
A diluent (aqueous solution) comprising 0.1% (w/v) of ethyl pyruvate, 0.269% (w/v) of sodium dihydrogenphosphate monohydrate (NaH2PO4.H2O), 0.433% (w/v) of disodium hydrogenphosphate (Na2HPO4), 0.2% (w/v) of hydroxypropyl methylcellulose, 0.5% (w/v) of NaCl, and purified water (appropriate amount) was prepared.
Compound 1 was stirred with the addition of Vehicle C to prepare a 1.5% (w/v) emulsion, and the emulsion was diluted with the diluent to give a 0.3% (w/v) emulsion. Further, the resulting 0.3% (w/v) emulsion was diluted with the diluent to give a 0.03% (w/v) emulsion. Further, the resulting 0.03% (w/v) emulsion was diluted with the diluent to give a 0.003% (w/v) emulsion.
Compound 3 was stirred with the addition of Vehicle C to give a 1.5% (w/v) solution, and the resulting solution was diluted to give a 0.3% (w/v) solution. Further, the resulting 0.3% (w/v) solution was diluted with Vehicle A to give a 0.03% (w/v) solution. Further, the resulting 0.03% (w/v) solution was diluted with Vehicle A to give a 0.003% (w/v) solution.
Compound 4 was stirred with the addition of Vehicle D to give a 1.5% (w/v) emulsion, and the resulting emulsion was diluted with the diluent to prepare a 0.3% (w/v) emulsion. Further, the resulting 0.3% (w/v) emulsion was diluted with the diluent to give a 0.03% (w/v) emulsion. Further, the resulting 0.03% (w/v) emulsion was diluted with the diluent to give a 0.003% (w/v) emulsion.
EV06 was stirred with the addition of Vehicle A to give a 1.5% (w/v) solution, which was used for comparison to the samples of Compound 1 and 3.
EV06 was sonicated with the addition of Vehicle B to give a 1.5% (w/v) emulsion, which was used for comparison to Compound 4 sample.
(Test method) 1) Each test sample (2.5 μL/eye) was instilled into the right eye of 7 to 8-month-old C57BL/6J mice with a Pipetman 3 times per day (around 9:00, 13:00 and 17:00) for 12 to 15 days. 2) After the final instillation, the mice were euthanized by carbon dioxide inhalation, and then the eyeballs were extracted and rinsed with Hank's balanced salt solution (HESS). 3) The sclera near the optic nerve was cut with a razor, the lens was removed through the incision, and the removed lens was immersed in HESS. 4) The lens was placed on a glass slide, and an all-in-one fluorescence microscope BZ-9000 (Keyence) was used to capture an image of the lens (Image a). […]

[3] = 0.003% (w/v) sample, 7 to 8-month-old mice
[4] = 0.03% (w/v) sample, 7 to 8-month-old mice
[5] = 0.3% (w/v) sample, 7 to 8-month-old mice

Structure (SMILES)	Lens elasticity improvement (lens elasticity [1]) [μm]	lens elasticity improving effect (lens elasticity [1])	Lens elasticity improvement (lens elasticity [2]; [3]) [μm]	Lens elasticity improvement (lens elasticity [2]; [4]) [μm]	lens elasticity improvement compared with 1.5% EV06 group (lens elasticity [2])	Lens elasticity improvement (lens elasticity [2]; [5]) [μm]	Lens elasticity improvement (lens elasticity [2]; 1.5% (w/v) emulsion in Vehicle B, Table 4 (comparison to Compound 4)) [μm]	Lens elasticity improvement (lens elasticity [2]; 1.5% (w/v) solution in Vehicle A, Table 2 (comparison to Compound 1)) [μm]	Lens elasticity improvement (lens elasticity [2]; 1.5% (w/v) solution in Vehicle A, Table 3 (comparison to Compound 3)) [μm]
CC(C)=CCOC(=O)CCCC[C@@H]1CCSS1 [Compound 1, 3-Methyl-2-buten-1-yl (R)-5-(1,2-dithiolan-3-yl)pentanoate]	48.0	potent lens elasticity improving effect	13.0	37.1	equivalent to or better than 1.5% EV06 group	36.8			
O=C(CCCC[C@@H]1CCSS1)OCCN1CCN(CCO)CC1 [Compound 3]	49.9	potent lens elasticity improving effect	1.3	30.7	equivalent to or better than 1.5% EV06 group	41.8			
C[N+](C)(C)CCOC(=O)CCCC[C@@H]1CCSS1.[Cl-] [EV06, Lipoic acid choline ester, reference compound]	4.0	did not show lens elasticity improving effect					46.8	30.8	18.2
